Where two headings read alike, the source gives them in different places.
Columns and labels:
IMP-1 = IMP-1 (Serratia marcescens, UniProt P52699); test: biochemical; assay type: biochemical; details: CCF2-FA substrate, 2 hours at 25° C; read-out: IMP-1 IC50
Outline: (§1)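 Test compound, enzyme and the FRET cephalosporin substrate CCF2-FA are incubated together for 2 hours at 25° C. Cleavage is followed by fluorescence, and IC50 values are derived from semi-logarithmic inhibition curves fitted with a 4-parameter model.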

NDM-1 = NDM-1 (Klebsiella pneumoniae, UniProt C7C422); test: biochemical; assay type: biochemical
Outline: as §1

VIM-1 = VIM-1 (Pseudomonas aeruginosa (strain ATCC 15692 / DSM 22644 / CIP 104116 / JCM 14847 / LMG 12228 / 1C / PRS 101 / PAO1), UniProt A0A0F7KYQ8); test: biochemical; details: CCF2-FA substrate, 2 hours at 25° C
Outline: as §1

[1] = tested on: Escherichia coli expressing NDM-1 (CLB30005, CLB30016); assay type: cell-based; details: with imipenem 1 μg/ml, 95% inhibition of bacterial growth; for Escherichia coli MITC95: NDM-1 (CLB30016)
Outline: (§2)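 Clinical strains grown overnight on blood agar, then diluted 1:100 in 1.1× CAMHB and exposed to test compound with imipenem at 1 μg/ml. Incubation was 22–24 h at 35° C; growth was read by absorbance to find the compound concentration restoring imipenem susceptibility.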

[2] = tested on: Klebsiella pneumoniae expressing VIM-1 (IHMA599644); assay type: cell-based; details: with imipenem 1 μg/ml, 95% inhibition of bacterial growth; for Klebsiella pneumoniae MITC95: VIM-1 (IHMA599644)
Outline: as §2

[3] = tested on: Serratia marcescens expressing IMP-1 (CL5741); assay type: cell-based; details: with imipenem 1 μg/ml, 95% inhibition of bacterial growth; for Serratia marcescens MITC95: IMP-1 (CL5741)
Outline: as §2

[4] = tested on: P. aeruginosa expressing IMP-1, efflux+ (MB9798); assay type: cell-based, Pseudomonas aeruginosa; details: for P. aeruginosa expressing IMP-1, efflux+ (MB9798) MITC95: imipenem at 2 μg/mL, in the presence of a class A, C, D serine β-lactamase inhibitor closely related to relebactam; for Efflux ratio: ratio MITC95 PA_9798/MITC95 PA_9799
Excerpt: (§3) The strain background is Pseudomonas aeruginosa PAO1.

[5] = tested on: P. aeruginosa expressing IMP-1, efflux− (MB9799); test: Efflux: concentration of MBL inhibitor which restores susceptibility to imipenem; assay type: cell-based, Pseudomonas aeruginosa; details: imipenem at 2 μg/mL, in the presence of a class A, C, D serine β-lactamase inhibitor closely related to relebactam
Excerpt: as §3

[6] = CCF2-FA substrate, 2 hours at 25° C, read-out: NDM-1 IC50

Chain of IMP-1 (P52699 whole entry, looked up, species assumed): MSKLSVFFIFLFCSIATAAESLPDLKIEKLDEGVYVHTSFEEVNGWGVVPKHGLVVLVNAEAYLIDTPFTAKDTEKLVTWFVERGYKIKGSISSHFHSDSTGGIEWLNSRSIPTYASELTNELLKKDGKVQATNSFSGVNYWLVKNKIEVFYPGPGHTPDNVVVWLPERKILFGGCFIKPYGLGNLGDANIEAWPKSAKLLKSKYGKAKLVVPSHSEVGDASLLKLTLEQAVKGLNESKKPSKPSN
Chain of NDM-1 (C7C422 whole entry, looked up, species assumed): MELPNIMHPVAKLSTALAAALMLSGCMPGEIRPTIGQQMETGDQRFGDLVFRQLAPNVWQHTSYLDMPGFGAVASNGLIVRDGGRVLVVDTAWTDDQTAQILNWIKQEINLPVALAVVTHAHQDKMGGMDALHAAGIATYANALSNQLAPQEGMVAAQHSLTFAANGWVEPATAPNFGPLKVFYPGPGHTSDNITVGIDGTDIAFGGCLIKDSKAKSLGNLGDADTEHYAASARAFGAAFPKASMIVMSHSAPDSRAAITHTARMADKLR

SMILES	IC50 (IMP-1)	IC50 (NDM-1; [6])	IC50 (VIM-1)	Escherichia coli expressing NDM-1 (CLB30016) MITC95 [1]	Klebsiella pneumoniae expressing VIM-1 (IHMA599644) MITC95 [2]	Serratia marcescens expressing IMP-1 (CL5741) MITC95 [3]	P. aeruginosa expressing IMP-1, efflux+ (MB9798) MITC95 [4]	Efflux ratio [4]	P. aeruginosa expressing IMP-1, efflux− (MB9799) MITC95 [5]	Escherichia coli MITC95 [1]	Klebsiella pneumoniae MITC95 [2]	Serratia marcescens MITC95 [3]	IC50 (NDM-1)
CS(=O)(=O)Nc1nc2c(-c3ccc(S(=O)(=O)CCN)c(S(N)(=O)=O)c3-c3nn[nH]n3)cccc2s1 [Example 83, 6-(2-aminoethylsulfonyl)-3-(2-(methylsulfonamido)benzo[d]thiazol-4-yl)-2-(2H-tetrazol-5-yl)benzenesulfonamide]	341 pM	117 pM	263 pM	6.25 µM	12.5 µM	6.25 µM	12.5 µM	2.00	6.25 µM	–	–	–	–
NCCS(=O)(=O)c1ccc(-c2cccc3nc(C(=O)O)nn23)c(-c2nnn[nH]2)c1S(N)(=O)=O [Example 304, 5-(4-((2-aminoethyl)sulfonyl)-3-sulfamoyl-2-(1H-tetrazol-5-yl)phenyl)-[1,2,4]triazolo [1,5-a]pyridine-2-carb oxylic Acid]	5360 pM	214 pM	478 pM	–	–	–	25 µM	2.00	12.5 µM	6.25 µM	50 µM	6.25 µM	–
NS(=O)(=O)c1c(S(=O)(=O)C2CNC2)ccc(-c2ccc3ccncc3c2)c1-c1nnn[nH]1.O=C(O)C(F)(F)F [Example 131, 3-((4-(isoquinolin-7-yl)-2-sulfamoyl-3-(1H-tetrazol-5-yl)phenyl)sulfonyl)azetidin-1-ium 2,2,2-trifluoroacetate]	510 pM	345 pM	130 pM	0.7813 µM	3.125 µM	3.125 µM	25 µM	15.99	1.563 µM	–	–	–	–
NS(=O)(=O)c1c(S(=O)(=O)CCO)ccc(-c2cccc3c2ccc[n+]3[O-])c1-c1nn[nH]n1 [Example 320, 5-(4-((2-hydroxyethyl)sulfonyl)-3-sulfamoyl-2-(2H-tetrazol-5-yl)phenyl)quinoline 1-oxide]	1060 pM	939 pM	208 pM	–	–	–	25 µM	4.00	6.25 µM	50 µM	12.5 µM	25 µM	–
Nc1ccc(-c2ccc(S(=O)(=O)C3CNC3)c(S(N)(=O)=O)c2-c2nn[nH]n2)cn1 [Example 25, 3-(6-aminopyridin-3-yl)-6-(azetidin-3-ylsulfonyl)-2-(2H-tetrazol-5-yl)benzenesulfonamide]	862 pM	532 pM	441 pM	0.5156 µM	2.135 µM	0.6719 µM	2.302 µM	2.18	1.058 µM	–	–	–	–
Nc1nc2ccc(-c3ccc([S+]([O-])C4CCNCC4)c(S(N)(=O)=O)c3-c3nn[nH]n3)cc2[nH]1 (stereo not drawn) [Example 12, 3-(2-amino-3H-benzo[d]imidazol-5-yl)-6-(piperidin-4-ylsulfinyl)-2-(2H-tetrazol-5-yl)benzenesulfonamide]	130000 pM	4060 pM	4360 pM	6.25 µM	6.25 µM	6.25 µM	25 µM	8.00	3.125 µM	–	–	–	–
NCCS(=O)(=O)c1ccc(-c2c[nH]c3nccnc23)c(-c2nnn[nH]2)c1S(N)(=O)=O.O=C(O)C(F)(F)F [Example 136, 2-((4-(5H-pyrrolo[2,3-b]pyrazin-7-yl)-2-sulfamoyl-3-(1H-tetrazol-5-yl)phenyl)sulfonyl)ethanaminium 2,2,2-trifluoroacetate]	1720 pM	2140 pM	1190 pM	1.563 µM	3.125 µM	1.563 µM	12.5 µM	16.00	0.7813 µM	–	–	–	–
C[C@H](N)CS(=O)(=O)c1ccc(-c2cccc3c2nc(N)n3C)c(-c2nn[nH]n2)c1S(N)(=O)=O [Example 276, 3-(2-amino-1-methyl-1H-benzo[d]imidazol-4-yl)-6-((S)-2-aminopropylsulfonyl)-2-(2H-tetrazol-5-yl)benzenesulfonamide]	285 pM	240 pM	214 pM	–	–	–	1.563 µM	2.00	0.7813 µM	0.7813 µM	3.125 µM	0.7813 µM	–
NCCS(=O)(=O)c1ccc(-c2cccc3[nH]c([C@H](N)CN)nc23)c(-c2nn[nH]n2)c1S(N)(=O)=O [Example 327, (R)-6-((2-Aminoethyl)sulfonyl)-3-(2-(1,2-diaminoethyl)-1H-benzo[d]imidazol-4-yl)-2-(2H-tetrazol-5-yl)benzenesulfonamide]	2230 pM	–	455 pM	–	–	–	3.125 µM	2.00	1.563 µM	1.563 µM	3.125 µM	3.125 µM	1020 pM
Nc1nc2cccc(-c3ccc(S(=O)(=O)[C@H]4C[C@H](N)C4)c(S(N)(=O)=O)c3-c3nn[nH]n3)c2[nH]1 [Example 175, 3-(2-amino-3H-benzo[d]imidazol-4-yl)-6-((1r,3r)-3-aminocyclobutylsulfonyl)-2-(2H-tetrazol-5-yl)benzenesulfonamide]	2200 pM	149 pM	478 pM	0.7813 µM	1.563 µM	1.563 µM	0.7813 µM	1.00	0.7813 µM	–	–	–	–
NS(=O)(=O)c1c([S+]([O-])C2CNC2)ccc(-c2cnc3ccccn23)c1-c1nn[nH]n1 (stereo not drawn) [Example 8, 6-(azetidin-3-ylsulfinyl)-3-(imidazo[1,2-a]pyridin-3-yl)-2-(2H-tetrazol-5-yl)benzenesulfonamide]	37700 pM	2620 pM	6920 pM	3.125 µM	12.5 µM	12.5 µM	50 µM	8.00	6.25 µM	–	–	–	–

From patent publication US10227331B2 (priority 2015, dated 2019)
